Where two headings read alike, the source gives them in different places. Starred links: 1 amine or outer side, 2 acyl side, 3 side chain; linkers in the order of their positions; H or OH if unused. Positions of bridges follow the written chain, without caps; N, C: chain ends. Non-standard residues stand in square brackets, D forms with d. Groups on a side chain read outwards from the residue. Chains are numbered I, II in the order given. *: point of attachment. C20 diacid = O=C(O)CCCCCCCCCCCCCCCCCCC(=O)*; C18 diacid = O=C(O)CCCCCCCCCCCCCCCCC(=O)*; γGlu = O=C(O)[C@H](CCC(=O)[*:2])N[*:1]; εLys = N[C@@H](CCCCN[*:1])C(=O)[*:2]; β3hQ = NC(=O)CC[C@H](N)CC(=O)O; AEEA = NCCOCCOCC(=O)O; Aib = CC(C)(N)C(=O)O
Tests used:
Type in all cases: cell-based
Conditions in all cases: CreLuc reporter gene assay
hGLP1R = target: T1, hGLP1R (Homo sapiens, UniProt P43220); experiment: hGLP1R CreLuc reporter gene assay in 0.5% and 100% plasma
T1 construct: expressed in transfected cells; host or cells: HEK-293 cells carrying a CRE-luciferase reporter gene
How it was run: (§1)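 Agonist EC50s came from 8-concentration curves over four decades, fitted by non-linear variable-slope regression of CRE-driven luciferase luminescence. Cells were exposed 4 h at 37 °C, in buffer with 0.5% human plasma or in 100% plasma; GIPR was expressed in CHO cells, GLP-1R and NPY2R in HEK cells.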

hGIPR = target: T2, hGIPR (Homo sapiens, UniProt P48546); experiment: hGIPR CreLuc reporter gene assay in 0.5% and 100% plasma
T2 construct: expressed in transfected cells; host or cells: CHO cells carrying a CRE-luciferase reporter gene
T2 sequence (P48546 22-466): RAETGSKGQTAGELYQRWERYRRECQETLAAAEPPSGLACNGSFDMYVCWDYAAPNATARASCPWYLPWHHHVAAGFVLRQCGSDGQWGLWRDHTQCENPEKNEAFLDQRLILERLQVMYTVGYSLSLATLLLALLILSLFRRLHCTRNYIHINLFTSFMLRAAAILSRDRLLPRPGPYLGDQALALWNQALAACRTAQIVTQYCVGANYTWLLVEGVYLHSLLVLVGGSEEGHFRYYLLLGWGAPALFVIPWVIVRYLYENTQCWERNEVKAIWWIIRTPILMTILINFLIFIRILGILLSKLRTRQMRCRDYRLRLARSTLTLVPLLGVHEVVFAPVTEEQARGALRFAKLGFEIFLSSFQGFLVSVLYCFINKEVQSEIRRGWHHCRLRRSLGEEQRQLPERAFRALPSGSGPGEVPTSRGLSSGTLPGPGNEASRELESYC
How it was run: as §1

hNPY2R = target: T3, hNPY2R (Homo sapiens, UniProt P49146); experiment: hNPY2R CreLuc reporter gene assay in 0.5% and 100% plasma
T3 construct: expressed in transfected cells; host or cells: HEK-293 cells carrying a CRE-luciferase reporter gene
T3 sequence (P49146 1-381): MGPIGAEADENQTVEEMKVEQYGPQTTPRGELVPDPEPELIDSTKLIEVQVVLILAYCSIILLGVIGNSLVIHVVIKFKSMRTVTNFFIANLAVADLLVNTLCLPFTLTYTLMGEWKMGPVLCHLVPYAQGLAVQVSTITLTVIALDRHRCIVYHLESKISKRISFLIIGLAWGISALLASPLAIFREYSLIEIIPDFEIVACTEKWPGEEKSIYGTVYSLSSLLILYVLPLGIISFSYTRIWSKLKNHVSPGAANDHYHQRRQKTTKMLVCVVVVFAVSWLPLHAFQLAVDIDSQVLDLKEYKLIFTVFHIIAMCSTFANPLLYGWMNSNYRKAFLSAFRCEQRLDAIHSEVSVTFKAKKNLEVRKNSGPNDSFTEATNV
How it was run: as §1

[1] = 0.5% human plasma, read-out: hGLP1R 0.5% hP
[2] = 0.5% human plasma, read-out: hGIPR 0.5% hP
[3] = 0.5% human plasma, read-out: hNPY2R 0.5% hP
[4] = 100% human plasma, read-out: hGIPR 100% hP
[5] = 100% human plasma, read-out: hNPY2R 100% hP
[6] = 100% human plasma, read-out: hGLP1R 100% hP

T1 sequence (P43220 24-463): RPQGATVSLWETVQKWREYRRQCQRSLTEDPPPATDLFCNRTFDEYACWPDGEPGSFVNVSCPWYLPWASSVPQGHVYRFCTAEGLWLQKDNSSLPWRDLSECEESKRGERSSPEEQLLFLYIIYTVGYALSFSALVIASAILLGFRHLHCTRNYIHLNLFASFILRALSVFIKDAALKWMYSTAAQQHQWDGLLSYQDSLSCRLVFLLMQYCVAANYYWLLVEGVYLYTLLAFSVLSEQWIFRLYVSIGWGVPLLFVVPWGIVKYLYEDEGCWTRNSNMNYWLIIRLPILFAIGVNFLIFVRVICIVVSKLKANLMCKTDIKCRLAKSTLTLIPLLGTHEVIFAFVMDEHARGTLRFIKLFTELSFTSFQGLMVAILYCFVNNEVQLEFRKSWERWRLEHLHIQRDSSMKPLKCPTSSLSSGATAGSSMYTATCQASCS

Molecule	EC50 (hGLP1R; [1])	EC50 (hGIPR; [2])	EC50 (hNPY2R; [3])	EC50 (hGIPR; [4])	EC50 (hNPY2R; [5])	EC50 (hGLP1R; [6])
H-Y[Aib]EGTFTSDYSI[Aib]LEKQAQ[Aib]AFVQWLIK([AEEA-AEEA-γGlu-γGlu-γGlu-γGlu-C20 diacid])GGPEEGASLRHYYNWLTRQRY-NH2 [Compound 193, Y-Aib-E-G-T-F-T-S-D-Y-S-I-Aib-L-E-K-Q-A-Q-Aib-A-F-V-Q-W-L-I-K(1,3)-GGPEEGASLRHYYNWLTRQRY-NH2.C20DA-gGlu-gGlu-gGlu-gGlu-OEG-OEG(1,2)]	0.36 nM	0.5 nM	13.6 nM	–	–	–
H-Y[Aib]EGTFTSDYSI[Aib]LEKQAQ[Aib]AFVQWLIK([AEEA-AEEA-γGlu-γGlu-γGlu-γGlu-γGlu-C20 diacid])GGPESGASLRHYYNWLTRQRY-NH2 [Compound 32, Y-Aib-E-G-T-F-T-S-D-Y-S-I-Aib-L-E-K-Q-A-Q-Aib-A-F-V-Q-W-L-I-K(1,3)-GGPESGASLRHYYNWLTRQRY-NH2.C20DA-gGlu-gGlu-gGlu-gGlu-gGlu-OEG-OEG(1,2)]	0.07 nM	0.16 nM	12.2 nM	1.15 nM	49.3 nM	–
H-Y[Aib]EGTFTSDYSI[Aib]LEKQAQ[Aib]AFVEWLIK([AEEA-AEEA-γGlu-γGlu-γGlu-C18 diacid])GGPEEGASLRHYYNWLTRQRY-NH2 [Compound 248, Y-Aib-E-G-T-F-T-S-D-Y-S-I-Aib-L-E-K-Q-A-Q-Aib-A-F-V-E-W-L-I-K(1,3)-GGPEEGASLRHYYNWLTRQRY-NH2.C18DA-gGlu-gGlu-gGlu-OEG-OEG(1,2)]	0.25 nM	0.12 nM	18.7 nM	0.79 nM	–	–
H-Y[Aib]EGTFTSDYSI[Aib]LEKQAQ[Aib]AFVEWLIK([εLys-γGlu-γGlu-γGlu-γGlu-γGlu-γGlu-C20 diacid])GGPSSYESLRHYYNWLTRQRY-NH2 [Compound 50, Y-Aib-E-G-T-F-T-S-D-Y-S-I-Aib-L-E-K-Q-A-Q-Aib-A-F-V-E-W-L-I-K(1,3)-GGPSSYESLRHYYNWLTRQRY-NH2.C20DA-gGlu-gGlu-gGlu-gGlu-gGlu-gGlu-eLys(1,2)]	0.13 nM	0.12 nM	11.8 nM	–	–	–
H-Y[Aib]EGTFTSDYSI[Aib]LEKQAQ[Aib]AFVQWLIK([γGlu-γGlu-γGlu-γGlu-γGlu-C18 diacid])GGPSEGASLRHYYNWLTRQRY-NH2 [Compound 250, Y-Aib-E-G-T-F-T-S-D-Y-S-I-Aib-L-E-K-Q-A-Q-Aib-A-F-V-Q-W-L-I-K(1,3)-GGPSEGASLRHYYNWLTRQRY-NH2.C18DA-gGlu-gGlu-gGlu-gGlu-gGlu(1,2)]	0.08 nM	0.2 nM	12.2 nM	1.25 nM	–	–
H-Y[Aib]EGTFTSDYSI[Aib]LEEQAQ[Aib]AFVEWLIK([εLys-γGlu-γGlu-γGlu-γGlu-γGlu-γGlu-C20 diacid])GGPSSGASLRHYYNWLTRQRY-NH2 [Compound 116, Y-Aib-E-G-T-F-T-S-D-Y-S-I-Aib-L-E-E-Q-A-Q-Aib-A-F-V-E-W-L-I-K(1,3)-GGPSSGASLRHYYNWLTRQRY-NH2.C20DA-gGlu-gGlu-gGlu-gGlu-gGlu-gGlu-eLys(1,2)]	0.14 nM	0.43 nM	13.5 nM	3.01 nM	85.7 nM	2.48 nM
H-Y[Aib]EGTFTSDYSI[Aib]LEKQAQ[Aib]AFVQWLIK([εLys-γGlu-γGlu-γGlu-γGlu-γGlu-γGlu-C20 diacid])GGPSEGASLRHYYNWLTR[β3hQ]RY-NH2 [Compound 186, Y-Aib-E-G-T-F-T-S-D-Y-S-I-Aib-L-E-K-Q-A-Q-Aib-A-F-V-Q-W-L-I-K(1,3)-G-G-P-S-E-G-A-S-L-R-H-Y-Y-N-W-L-T-R-bHGln-R-Y-NH2.C20DA-gGlu-gGlu-gGlu-gGlu-gGlu-gGlu-eLys(1,2)]	0.11 nM	0.11 nM	> 99.9 nM	0.77 nM	–	–
H-Y[Aib]EGTFTSDYSI[Aib]LEKQAQ[Aib]AFVEWLIK([εLys-γGlu-γGlu-γGlu-γGlu-γGlu-γGlu-C20 diacid])GGPSSGIELRHFLNHLTRQRY-NH2 [Compound 2, Y-Aib-E-G-T-F-T-S-D-Y-S-I-Aib-L-E-K-Q-A-Q-Aib-A-F-V-E-W-L-I-K(1,3)-GGPSSGIELRHFLNHLTRQRY-NH2.C20DA-gGlu-gGlu-gGlu-gGlu-gGlu-gGlu-eLys(1,2)]	0.1 nM	0.35 nM	> 99.9 nM	1.56 nM	563 nM	1.39 nM
I: H-Y[Aib]EGTFTSDYSI[Aib]LEKQAQ[Aib]AFVQWLIKGGPEEGASLRHYYNWLTRQRY-NH2 / II: {C18 diacid}-EEEEE[εLys] (amide I:28-II:C) [Compound 155, Y-Aib-E-G-T-F-T-S-D-Y-S-I-Aib-L-E-K-Q-A-Q-Aib-A-F-V-Q-W-L-I-K(1,3)-GGPEEGASLRHYYNWLTRQRY-NH2.C18DA-E-E-E-E-E-eLys(1,2)]	0.15 nM	0.14 nM	17 nM	1.43 nM	–	7.18 nM
H-Y[Aib]EGTFTSDYSI[Aib]LEKQAQ[Aib]AFVEWLIK([εLys-γGlu-γGlu-γGlu-γGlu-γGlu-C20 diacid])GGPEEGASLRHYYNWLTRQRY-NH2 [Compound 230, Y-Aib-E-G-T-F-T-S-D-Y-S-I-Aib-L-E-K-Q-A-Q-Aib-A-F-V-E-W-L-I-K(1,3)-GGPEEGASLRHYYNWLTRQRY-NH2.C20DA-gGlu-gGlu-gGlu-gGlu-gGlu-eLys(1,2)]	0.29 nM	0.28 nM	15.4 nM	1.43 nM	–	–
H-Y[Aib]EGTFTSDYSI[Aib]LEKQAQ[Aib]EFVEWLIK([εLys-γGlu-γGlu-γGlu-γGlu-γGlu-γGlu-γGlu-C20 diacid])GGPSSGASLRHYYNWLTRQRY-NH2 [Compound 88, Y-Aib-E-G-T-F-T-S-D-Y-S-I-Aib-L-E-K-Q-A-Q-Aib-E-F-V-E-W-L-I-K(1,3)-GGPSSGASLRHYYNWLTRQRY-NH2.C20DA-gGlu-gGlu-gGlu-gGlu-gGlu-gGlu-gGlu-eLys(1,2)]	–	0.53 nM	–	1.58 nM	45.4 nM	7.18 nM
CC[C@H](C)[C@H](NC(=O)[C@H](CO)NC(=O)[C@H](Cc1ccc(O)cc1)NC(=O)[C@H](CC(=O)O)NC(=O)[C@H](CO)NC(=O)[C@@H](NC(=O)[C@H](Cc1ccccc1)NC(=O)[C@@H](NC(=O)CNC(=O)[C@H](CCC(=O)O)NC(=O)C(C)(C)NC(=O)[C@@H](N)Cc1ccc(O)cc1)[C@@H](C)O)[C@@H](C)O)C(=O)NC(C)(C)C(=O)N[C@@H](CC(C)C)C(=O)N[C@@H](CCC(=O)O)C(=O)N[C@@H](CCCCN)C(=O)N[C@@H](CCC(N)=O)C(=O)N[C@@H](C)C(=O)N[C@@H](CCC(N)=O)C(=O)NC(C)(C)C(=O)N[C@@H](C)C(=O)N[C@@H](Cc1ccccc1)C(=O)N[C@H](C(=O)N[C@@H](CCC(=O)O)C(=O)N[C@@H](Cc1c[nH]c2ccccc12)C(=O)N[C@@H](CC(C)C)C(=O)N[C@@H](CC(C)C)C(=O)N[C@@H](CCCCNC(=O)[C@@H](N)CCCCNC(=O)CC[C@H](NC(=O)CC[C@H](NC(=O)CC[C@H](NC(=O)CC[C@H](NC(=O)CC[C@H](NC(=O)CC[C@H](NC(=O)CCCCCCCCCCCCCCCCCCC(=O)O)C(=O)O)C(=O)O)C(=O)O)C(=O)O)C(=O)O)C(=O)O)C(=O)NCC(=O)NCC(=O)N1CCC[C@H]1C(=O)N[C@@H](CO)C(=O)N[C@@H](CO)C(=O)NCC(=O)N[C@@H](C)C(=O)N[C@@H](CO)C(=O)N[C@@H](CC(C)C)C(=O)N[C@@H](CCCNC(=N)N)C(=O)N[C@@H](Cc1c[nH]cn1)C(=O)N[C@@H](Cc1ccc(O)cc1)C(=O)N[C@@H](Cc1ccc(O)cc1)C(=O)N[C@@H](CC(N)=O)C(=O)N[C@@H](Cc1c[nH]c2ccccc12)C(=O)N[C@@H](CC(C)C)C(=O)N[C@H](C(=O)N[C@@H](CCCNC(=N)N)C(=O)N[C@@H](CCC(N)=O)C(=O)N[C@@H](CCCNC(=N)N)C(=O)N[C@@H](Cc1ccc(O)cc1)C(N)=O)[C@@H](C)O)C(C)C [Compound 109, Y-Aib-E-G-T-F-T-S-D-Y-S-I-Aib-L-E-K-Q-A-Q-Aib-A-F-V-E-W-L-L-K(1,3)-GGPSSGASLRHYYNWLTRQRY-NH2.C20DA-gGlu-gGlu-glu-gGlu-gGlu-Glu-eLys(1,2)]	0.28 nM	0.09 nM	10.8 nM	0.64 nM	–	–
